Data on 25 molecules can be found in US12612424B2, “HPK1 inhibitors and uses thereof” (Regor Pharmaceuticals, Inc., priority 2019, dated 2026).

This experiment deals with Human Pan T Cell (IL-2 release). The experiment is described as follows: IL2 released by human pan T cell upon anti-CD3/anti-CD28 stimulation (ELISA). The format is cell-based. To be noted: human pan T cells; for maximal fold induction / EC50 / EC (2-fold response): Homo sapiens, T-cell; for maximal fold induction / EC (2-fold response): 48 h; for maximal fold induction: response of IL-2 over DMSO control, anti-CD3/anti-CD28, 48 hours, ELISA, read-out: IL-2 Max Fold Response; for EC50: IL-2 response, calculated with GraphPad Prism; for EC (2-fold response) / EC2x (nM): concentration of compound that gives 200% IL-2 response (2 folds) over DMSO control. The source says: For example, Example 5 describes such a functional assay for determining the effect of an HPK1 inhibitor on IL-2 & IFN-γ release upon stimulation of Pan T cells. The secreted IL-2 & IFN-γ can be measured/quantified by standard ELISA assay. Briefly, pan T cells can be isolated from peripheral blood (PB) mononuclear cells (MNCs), or PBMC, using commercially available kits, such as MACS (Miltenyl Biotec) Pan T isolation kit (Cat. No. 130-096-535). Primary human pan-T cells include CD4 and CD8 T cells as well as some gamma/delta T cell subsets. The pan-T cells can be isolated using the negative immunomagnetic separation technique without the use of columns.
Isolated pan-T cells can be dispensed into 96-well plates at 100,000 cells/well, and stimulated with immobilized anti-CD3 antibody and soluable anti-CD28 antibody, or PMA/Ionomycin as the positive control (or culture media as the negative control). Different concentrations of test compounds can be added to the cells to assess the compound effect on cytokine secretion following TCR-stimulation/CD28 co-stimulation. Stimulated cells are incubated for 2 more days, before the supernatant (containing secreted cytokines by pan-T cells) is collected from each well for ELISA assay and quantitation of IL-2 and IFN-γ.
Biology Example 8 Compound Efficacy Study on IL2 & IFN-γ Released by Human Pan T Cell
This example is an assay method that can be used to determine compound effects on IL2 & IFN-γ release using pan T cells and ELISA assay format.
3. Procedures Procedures for Pan T isolation and Reagent preparation (Day 0): 1. Cell Growth Medium: • RPMI1640: ATCC, Cat #30-2001 • 10% FBS: Gibco, Cat #10099141 • 1% Pen-Strep: Gibco, Cat #15140122 • 1% Non-essential amino: Gibco, Cat #11140050 • Beta-Mercaptoethanol: Gibco, Cat #21985023 2. Pan T Isolation Buffer Preparation:
Prepare a solution containing phosphate-buffered saline (PBS), pH 7.2, 0.5% bovine serum albumin (BSA), and 2 mM EDTA by diluting MACS® BSA Stock Solution (#130-091-376) 20 times with autoMACS® Rinsing Solution. Keep buffer at 4° C. Degas buffer before use, as air bubbles could block the column.
3. Thawing of Frozen PBMC • 1) Pre-heat medium at 37° C. water bath. • 2) Rapidly thaw cells in 37° C. water bath. • 3) Add the pre-warmed medium into 15 mL tube. Transfer cells to the tube. • 4) 300×g centrifuge for 8 min. (centrifuge increase 0, decrease 0). • 5) Wash the PBMC using Rinsing buffer. • 6) Centrifuge PBMC at 300×g for 8 min, wash it twice (centrifuge increase 9, decrease 1). • 7) Resuspend the cells with Pan T cells isolation buffer and count cells number. 4. Pan T Cells Isolation: Cell Staining with Microbead Cocktail • 1) Prepare cells and determine cell number. Filter cells by 70 μm cell strainer. • 2) Resuspend cell pellet in 40 μL of buffer per 10^7 total cells. • 3) Add 10 μL of Pan T Cell Biotin-Antibody Cocktail per 10^7 total cells. • 4) Mix well and incubate for 10 minutes in the refrigerator (ice). • 5) Add 30 μL of buffer per 10^7 total cells. • 6) Add 20 μL of Pan T Cell MicroBead Cocktail per 10^7 total cells. • 7) Mix well and incubate for 15 minutes in the refrigerator (ice). • 8) Proceed to subsequent magnetic cell separation. • Note: a. Work fast, keep cells cold, and use pre-cooled solutions (2-8° C.). b. Volumes for magnetic labeling given are for up to 10′ total cells. When working with fewer cells, use the same volumes as indicated. c. When working with higher cell numbers, scale up all reagent volumes and total volumes accordingly. d. For optimal performance it is important to obtain a single-cell suspension before magnetic labeling. Subsequent Manual Cell Separation: • 1) Place LS Column in the magnetic field of a suitable MACS Separator. For details refer to the respective MACS Column data sheet. • 2) Prepare column by rinsing with 3 mL of buffer. • 3) Apply cell suspension onto the column. Collect flow-through, which represents the enriched T cells. • 4) Wash column with 5 mL of buffer. […]

For `COc1cc2c(cc1Nc1ncc(Cl)c(N3CCc4ccc(C(F)F)cc43)n1)CN(C)CC2` [Example 91, N-(5-chloro-4-(6-(difluoromethyl)indolin-1-yl)pyrimidin-2-yl)-6-methoxy-2-methyl-1,2,3,4-tetrahydroisoquinolin-7-amine], the maximal fold induction was less than 2.

A word on the EC50: it is the concentration needed to bring the measured effect to its halfway point. Consider `COc1cc2c(cc1Nc1ncc(Cl)c(N3CCc4cc(Cl)ccc43)n1)CN(C)CC2` [Example 13, N-(5-chloro-4-(5-chloroindolin-1-yl)pyrimidin-2-yl)-6-methoxy-2-methyl-1,2,3,4-tetrahydroisoquinolin-7-amine], for which the maximal fold induction is less than 2 and the EC50 is more than 1000 nM.

As for `COc1cc2c(cc1Nc1ncc(Cl)c(-n3ccc4ccccc43)n1)CN(C)CC2` [Example 2, N-(5-chloro-4-(1H-indol-1-yl)pyrimidin-2-yl)-6-methoxy-2-methyl-1,2,3,4-tetrahydroisoquinolin-7-amine], the maximal fold induction was less than 2.

As to `COC(=O)C1CN(c2nc(Nc3cc4c(cc3OC)CCN(C)C4)ncc2C(F)F)c2ccccc21` (stereo not shown) [Example 112], the maximal fold induction is less than 2.

In the case of `COc1cc2c(cc1Nc1ncc(Cl)c(N3CC(C(=O)NS(C)(=O)=O)c4ccccc43)n1)CN(C)CC2` (stereo not shown) [Example 98], the maximal fold induction is less than 2.

For the molecule `COc1cc2c(cc1Nc1ncc(C(F)(F)F)c(-n3ccc4ccccc43)n1)CN(C)CC2` [Example 10, N-(4-(1H-indol-1-yl)-5-(trifluoromethyl)pyrimidin-2-yl)-6-methoxy-2-methyl-1,2,3,4-tetrahydroisoquinolin-7-amine], the maximal fold induction is less than 2.

Consider `COc1cc2c(cc1Nc1ncc(Cl)c(N3CCc4ccccc43)n1)CN(C)CC2` [Example 4, N-(5-Chloro-4-(indolin-1-yl)pyrimidin-2-yl)-6-methoxy-2-methyl-1,2,3,4-tetrahydroisoquinolin-7-amine], for which the EC (2-fold response) lay in the range of 0.1 to 0.5 µM, the maximal fold induction was more than 2 and the concentration giving a half-maximal response (EC50) is 100 to 500 nM.

Take `COc1cc2c(cc1Nc1ncc(Cl)c(N3CC(C)(C(=O)O)c4cc(F)ccc43)n1)CN(C)CC2` (stereo not shown) [Example 125]: the EC (2-fold response) was not above 0.1 µM, the maximal fold induction is more than 2 and the half-maximal effective concentration (EC50) was not above 100 nM.

Take `COc1ccc2c(c1)N(c1nc(Nc3cc4c(cc3OC)CCN(C)C4)ncc1Cl)CC2C(=O)O` (stereo not shown) [Example 107, 1-(5-Chloro-2-((6-methoxy-2-methyl-1,2,3,4-tetrahydroisoquinolin-7-yl)amino)pyrimidin-4-yl)-6-methoxyindoline-3-carboxylic acid]: the maximal fold induction was less than 2.

Regarding `COc1cc2c(cc1Nc1ncc(Cl)c(N3CCc4c(C(F)F)cccc43)n1)CN(C)CC2` [Example 92, N-(5-chloro-4-(4-(difluoromethyl)indolin-1-yl)pyrimidin-2-yl)-6-methoxy-2-methyl-1,2,3,4-tetrahydroisoquinolin-7-amine], the maximal fold induction was less than 2.

As to `COc1cc2c(cc1Nc1ncc(Cl)c(N3CC(C(=O)O)C4(CCCC4)C3)n1)CN(C)CC2` (stereo not shown) [Example 169, 2-(5-Chloro-2-((6-methoxy-2-methyl-1,2,3,4-tetrahydroisoquinolin-7-yl)amino)pyrimidin-4-yl)-2-azaspiro[4.4]nonane-4-carboxylic acid], the maximal fold induction was more than 2; the EC50 is more than 1000 nM; the “EC2x (nM)” value is recorded as “++ (“++”, for higher values than “+++” but less than or equal to 1 μM)”.

In the case of `CONC(=O)C1CN(c2nc(Nc3cc4c(cc3OC)CCN(C)C4)ncc2Cl)c2ccccc21` (stereo not shown) [Example 103, 1-(5-Chloro-2-((6-methoxy-2-methyl-1,2,3,4-tetrahydroisoquinolin-7-yl)amino)pyrimidin-4-yl)-N-methoxyindoline-3-carboxamide], the maximal fold induction was less than 2.

As to `COc1cc2c(cc1Nc1ncc(Cl)c(-n3cc(CC(=O)O)c4cc(F)c(F)cc43)n1)CN(C)CC2` [Example 140], the EC (2-fold response) fell in the range of 0.1 to 0.5 µM, the maximal fold induction was more than 2 and the 50% effective concentration (EC50) is 100 to 500 nM.

Turning to `COc1cc2c(cc1Nc1ncc(Cl)c(-n3cc(CC(=O)NCC#N)c4ccccc43)n1)CN(C)CC2` [Example 137], the maximal fold induction was less than 2 and the concentration giving a half-maximal response (EC50) is 500 to 1000 nM.

Turning to `COc1cc2c(cc1Nc1ncc(Cl)c(-n3cc(CC(=O)O)c4ccccc43)n1)CN(C)CC2` [Example 129], the EC (2-fold response) was 0.1 to 0.5 µM, the maximal fold induction is more than 2 and the EC50 is 100 to 500 nM.

As for `COc1cc2c(cc1Nc1ncc(Cl)c(N3C[C@](C)(C(=O)O)c4ccccc43)n1)CN(C)CC2` (single isomer, unassigned) [Example 118], the maximal fold induction was less than 2 and the concentration for a half-maximal effect (EC50) is more than 1000 nM.

As to `COc1cc2c(cc1Nc1ncc(Cl)c(N3CC(P(C)(C)=O)c4ccccc43)n1)CN(C)CC2` (stereo not shown) [Example 88], the maximal fold induction was less than 2 and the EC50 is 500 to 1000 nM.

With `COc1cc2c(cc1Nc1ncc(Cl)c(-n3cc(C(C)C(=O)O)c4ccccc43)n1)CN(C)CC2` (stereo not shown) [Example 142], the maximal fold induction was less than 2 and the EC50 was 100 to 500 nM.

In the case of `CNC(=O)Cc1cn(-c2nc(Nc3cc4c(cc3OC)CCN(C)C4)ncc2Cl)c2ccccc12` [Example 136], the maximal fold induction was less than 2 and the concentration giving a half-maximal response (EC50) is 500 to 1000 nM.

For the molecule `COc1cc2c(cc1Nc1ncc(Cl)c(-n3cc(Cc4nn[nH]n4)c4ccccc43)n1)CN(C)CC2` [Example 135, N-(4-(3-((2H-tetrazol-5-yl)methyl)-1H-indol-1-yl)-5-chloropyrimidin-2-yl)-6-methoxy-2-methyl-1,2,3,4-tetrahydroisoquinolin-7-amine], the maximal fold induction was less than 2 and the EC50 was more than 1000 nM.

In the case of `COc1cc2c(cc1Nc1ncc(Cl)c(N3CC(C)(CC(=O)O)c4ccccc43)n1)CNCC2` (stereo not shown) [Example 160, 2-(1-(5-Chloro-2-((6-methoxy-1,2,3,4-tetrahydroisoquinolin-7-yl)amino)pyrimidin-4-yl)-3-methylindolin-3-yl)acetic acid methanesulfonic acid], the EC (2-fold response) was not above 0.1 µM, the maximal fold induction is more than 2 and the EC50 is not above 100 nM.

`COc1cc2c(cc1Nc1ncc(Cl)c(-n3cc(CC#N)c4ccccc43)n1)CN(C)CC2` [Example 134]: the maximal fold induction was less than 2 and the concentration giving a half-maximal response (EC50) is more than 1000 nM.

As for `COC(=O)C1(C)CN(c2nc(Nc3cc4c(cc3OC)CCN(C)C4)ncc2Cl)c2ccccc21` (stereo not shown) [Example 116], the maximal fold induction is more than 2; the EC50 is 500 to 1000 nM; the “EC2x (nM)” value is reported as “++ (“++”, for higher values than “+++” but less than or equal to 1 μM)”.

Regarding `CNC(=O)C1(C)CN(c2nc(Nc3cc4c(cc3OC)CCN(C)C4)ncc2Cl)c2ccccc21` (stereo not shown) [Example 122], the maximal fold induction is less than 2.

For the molecule `COc1cc2c(cc1Nc1ncc(Cl)c(N3CC(C(=O)O)c4ccccc43)n1)CN(C)CC2` (single isomer, unassigned) [Example 96], the EC (2-fold response) is 0.1 to 0.5 µM, the maximal fold induction is more than 2 and the EC50 is 100 to 500 nM.
